Among the test systems are HL-60(TB) leukemia; HCT-116 colon; UACC-62 melanoma; CAKI-1 renal; SF-539 CNS; HOP-92 NSCLC; SK-MEL-28 melanoma; MALME-3M melanoma; DU-145 prostate; BT-549 breast.
Holding throughout (experiment): NCI-60 cell line screen, 48 h

Structures are written as SMILES.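 Following 48 hours of exposure in 96-well plates, responses at five concentrations were used to interpolate endpoints linearly. GI50 is the concentration that inhibits growth by half. The concentration for full growth arrest is given as TGI.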

On to `COc1ccc([Se]c2ccc(OC)cc2)cc1`, for which the TGI was > 100 µM in the experiment on HL-60(TB) leukemia; > 100 µM with HCT-116 colon; > 100 µM with UACC-62 melanoma; > 100 µM with CAKI-1 renal; > 100 µM with SF-539 CNS; 98.7 µM with HOP-92 NSCLC. Further, the TGI with SK-MEL-28 melanoma and with MALME-3M melanoma was > 100 µM each time.

As for `CCOC(=O)C1C(=O)c2cccc(OC)c2C2COC(=O)N12` (stereo not given), the TGI in the experiment on HL-60(TB) leukemia, with HCT-116 colon, in the experiment on UACC-62 melanoma, with SF-539 CNS, in the experiment on HOP-92 NSCLC and in the experiment on SK-MEL-28 melanoma was > 100 µM in each case. The TGI in the experiment with MALME-3M melanoma was > 100 µM.

For the molecule `C#Cc1ccccc1N1C(=O)C=CC1=O`, the TGI in the experiment on HL-60(TB) leukemia, in the experiment with HCT-116 colon, with UACC-62 melanoma, with CAKI-1 renal, with SK-MEL-28 melanoma and in the experiment on MALME-3M melanoma was > 100 µM in each case.

Take `CC(=O)N1CCN(C=S)CC1`: the TGI in the experiment with HL-60(TB) leukemia, in the experiment on HCT-116 colon, with UACC-62 melanoma, in the experiment on CAKI-1 renal, in the experiment on SF-539 CNS and in the experiment on HOP-92 NSCLC was > 100 µM throughout. Also, the TGI with SK-MEL-28 melanoma and in the experiment on MALME-3M melanoma was > 100 µM in each case.

For `COc1c(OC2OC(CO)C(O)C(O)C2O)cc2c(c1OC)-c1ccc(OC)c(=O)cc1[C@@H](NC(C)=O)CC2` (stereo not given in full), the TGI in the experiment with HL-60(TB) leukemia, in the experiment on HCT-116 colon, in the experiment with UACC-62 melanoma, with CAKI-1 renal, in the experiment with SF-539 CNS and in the experiment on HOP-92 NSCLC was > 100 µM throughout. Besides, the TGI in the experiment on SK-MEL-28 melanoma and in the experiment with MALME-3M melanoma was > 100 µM in each case.

On to `C(=NCCN=Cc1cccc2ccccc12)c1cccc2ccccc12`, for which the TGI in the experiment on HCT-116 colon, in the experiment on UACC-62 melanoma, in the experiment on CAKI-1 renal, in the experiment with SF-539 CNS, in the experiment on SK-MEL-28 melanoma and with MALME-3M melanoma was > 100 µM throughout.

Consider `O=C1OC(=O)C2C1C1C(c3ccccc3)=C(c3ccccc3)C2(O)C2C(=O)OC(=O)C12` (stereo not given), for which the TGI in the experiment with HCT-116 colon, in the experiment with UACC-62 melanoma, in the experiment on CAKI-1 renal, in the experiment on HOP-92 NSCLC, in the experiment with SK-MEL-28 melanoma and in the experiment with MALME-3M melanoma was > 100 µM each time.

`N#CC12CC3(CCC1CCC1(C2)OCCO1)OCCO3` (stereo not given): the TGI with HL-60(TB) leukemia, in the experiment on HCT-116 colon, in the experiment with UACC-62 melanoma, in the experiment with CAKI-1 renal, in the experiment with SF-539 CNS and with HOP-92 NSCLC was > 100 µM throughout. In addition, the TGI in the experiment on SK-MEL-28 melanoma and in the experiment with MALME-3M melanoma was > 100 µM each time.

For the molecule `COc1ccc2c(c1)O/C(=C\c1ccc([N+](=O)[O-])s1)C2=O`, the TGI is > 100 µM in the experiment on HL-60(TB) leukemia; 5.37 µM in the experiment on HOP-92 NSCLC; > 100 µM in the experiment with SK-MEL-28 melanoma; > 100 µM in the experiment with MALME-3M melanoma; > 24.8 µM in the experiment on DU-145 prostate. In addition, the GI50 was 1.57 µM with HOP-92 NSCLC, 17.1 µM in the experiment with SK-MEL-28 melanoma, 4.99 µM in the experiment with MALME-3M melanoma and 2.53 µM in the experiment with DU-145 prostate.

Turning to `CCCCCC/C(CC(=O)CCC(=O)NCCc1ccccc1)=N\NC(=O)c1ccc2ccccc2c1O`, the TGI is 33.7 µM with HL-60(TB) leukemia; > 100 µM with HCT-116 colon; 50.8 µM with UACC-62 melanoma; > 100 µM in the experiment on HOP-92 NSCLC; > 100 µM in the experiment on SK-MEL-28 melanoma; > 100 µM in the experiment on MALME-3M melanoma.

On to `CCc1cccc(CC)c1NC(=O)C1=CNC(C)=C(C(=O)Nc2c(CC)cccc2CC)C1c1ccc(O)c(OC)c1` (stereo not given), for which the TGI was 57.4 µM in the experiment on HL-60(TB) leukemia; > 100 µM with CAKI-1 renal; 51.3 µM in the experiment on SF-539 CNS; > 100 µM with HOP-92 NSCLC; > 100 µM in the experiment with SK-MEL-28 melanoma; > 100 µM in the experiment on MALME-3M melanoma.

For the molecule `O=C(OCc1ccccc1)c1ccccc1-c1c2ccc(=O)cc-2oc2cc(OCc3ccccc3)ccc12`, the TGI in the experiment on HL-60(TB) leukemia was 22.8 µM; in the experiment with HCT-116 colon, 57.7 µM; in the experiment on UACC-62 melanoma, 24.6 µM; with CAKI-1 renal, 58.5 µM; in the experiment on SF-539 CNS, 28.9 µM; in the experiment on HOP-92 NSCLC it was 17.9 µM. Moreover, the TGI in the experiment with SK-MEL-28 melanoma was found to be 61 µM; in the experiment on MALME-3M melanoma, 31.4 µM.

As to `OCC(O)C(OC1OC(CO)C(O)C(O)C1O)c1nn(-c2ccc(Cl)cc2)c2nc3cc(Cl)ccc3nc12` (stereo not given), the TGI in the experiment with HCT-116 colon, in the experiment with UACC-62 melanoma, with SF-539 CNS, in the experiment with SK-MEL-28 melanoma and with MALME-3M melanoma was > 100 µM in each case.

Consider `ClCCCN1CCCCC1CCl` (stereo not given), for which the TGI with HL-60(TB) leukemia, with HCT-116 colon, with UACC-62 melanoma, in the experiment on CAKI-1 renal, with SF-539 CNS and with HOP-92 NSCLC was > 100 µM in each case. The TGI in the experiment with SK-MEL-28 melanoma and in the experiment with MALME-3M melanoma was > 100 µM in each case.

Turning to `N#CC(CC(=O)O)=C(c1ccccc1)c1ccccc1`, the TGI in the experiment with BT-549 breast, with HCT-116 colon, with UACC-62 melanoma, in the experiment with CAKI-1 renal, in the experiment with SF-539 CNS and in the experiment on HOP-92 NSCLC was > 100 µM each time. For the same molecule, the TGI in the experiment on SK-MEL-28 melanoma and with MALME-3M melanoma was > 100 µM each time.

Consider `Nc1cc(N)c2nc(-c3ccccc3)c(Oc3ccc(Cl)c(Cl)c3)nc2c1`, for which the GI50 is 5.15 µM with HL-60(TB) leukemia; 15.7 µM in the experiment on HCT-116 colon; 16.3 µM in the experiment with UACC-62 melanoma; 14.5 µM with CAKI-1 renal; 13.5 µM in the experiment with SF-539 CNS; 21.5 µM in the experiment with SK-MEL-28 melanoma. The GI50 with MALME-3M melanoma was 15.8 µM. For the same molecule, the TGI with HL-60(TB) leukemia is > 100 µM; in the experiment on HCT-116 colon, 48.3 µM; in the experiment on UACC-62 melanoma, 48.2 µM; in the experiment with CAKI-1 renal it was 35.9 µM; in the experiment on SF-539 CNS it was 29.5 µM; with SK-MEL-28 melanoma, 64.2 µM. The TGI with MALME-3M melanoma amounted to 37.4 µM; in the experiment with DU-145 prostate it was 27.1 µM.

For `CC(=O)CC(=O)ON(C)C(=O)Cc1ccccc1`, the TGI in the experiment with HL-60(TB) leukemia, in the experiment with HCT-116 colon, with UACC-62 melanoma, in the experiment on CAKI-1 renal, in the experiment with SF-539 CNS and with HOP-92 NSCLC was > 100 µM each time. Also, the TGI in the experiment with SK-MEL-28 melanoma and in the experiment with MALME-3M melanoma was > 100 µM throughout.
